Measured values reported in PMC4278221, “Territrem and Butyrolactone Derivatives from a Marine-Derived Fungus Aspergillus Terreus” (Marine Drugs, 2014).
Values after ≈ are worked out from the molar mass of the structure shown. Read-outs that look alike come from different tables or passages of the source.

Experiments:
Vero cell line = experiment: Cytotoxic activity against Vero cell line by MTT method; assay type: cell-based; details: non-cytotoxic concentration (TC0)
Protocol: (§1) Cytotoxic activity was evaluated using Vero cell lines by the MTT method. Anti-HSV-1 activity was determined by plaque assay using monolayer cultures of Vero cells in 24-well culture plates (Corning, New York, NY, USA). Virus suspension containing HSV-1 (30 plaque forming units (PFU)/well) was added to the cell wells and incubated at 37 °C with 5% CO2 for 2 h. The virus inoculum was then removed and overlay medium (maintenance medium containing 1% methylcellulose and various concentrations of tested compound) was added to each well. After another 72 h of incubation, the cell monolayers were fixed with 10% formalin and stained with 1% crystal violet. Plaques were counted and the percentage of inhibition was calculated according to literature. The concentration reducing plaque numbers by 50% was calculated by regression analysis of the dose–response curves generated from the plaque assay and was defined as 50% inhibitory concentration (IC50).

HSV-1 = experiment: Anti-HSV-1 plaque reduction assay in Vero cell monolayers; assay type: cell-based; details: 72 h, read-out: Anti-HSV-1 IC50
Protocol: The antiviral activities of 1–17 towards HSV-1 were evaluated using plaque reduction assay for the first time.
as §1

[1] = system: barnacle Balanus amphitrite larvae; experiment: Barnacle Balanus amphitrite larval settlement bioassay (antifouling); details: for EC50: Amphibalanus amphitrite, 24 h, read-out: Antifouling Against B. Amphitrite EC50; for LC50/EC50 values: antifouling activity at nontoxic concentrations, B. amphitrite larvae
Protocol: Larval settlement bioassays were performed using sterile 24-well polystyrene plates. Tested samples were dissolved in DMSO to a concentration of 50 μg·mL^−1 for preliminary bioassay. […] About 20 competent larvae were added to each well in 1 mL of the test solution. The experiment was repeated twice with four replicateseach time. Wells containing only FSW with DMSO served as the controls. The plates were incubated at 27 °C for 24 h. The percentage of larval settlement was determined by counting the settled, live individuals under a dissecting microscope and expressing the result as a proportion of the total number of larvae in the well. Statistical calculations were performed with the SPSS software package.

AChE = biological target: T1, AChE (Homo sapiens, UniProt P22303); experiment: biochemical
T1 construct: purchased Sigma
T1 sequence (P22303 32-614): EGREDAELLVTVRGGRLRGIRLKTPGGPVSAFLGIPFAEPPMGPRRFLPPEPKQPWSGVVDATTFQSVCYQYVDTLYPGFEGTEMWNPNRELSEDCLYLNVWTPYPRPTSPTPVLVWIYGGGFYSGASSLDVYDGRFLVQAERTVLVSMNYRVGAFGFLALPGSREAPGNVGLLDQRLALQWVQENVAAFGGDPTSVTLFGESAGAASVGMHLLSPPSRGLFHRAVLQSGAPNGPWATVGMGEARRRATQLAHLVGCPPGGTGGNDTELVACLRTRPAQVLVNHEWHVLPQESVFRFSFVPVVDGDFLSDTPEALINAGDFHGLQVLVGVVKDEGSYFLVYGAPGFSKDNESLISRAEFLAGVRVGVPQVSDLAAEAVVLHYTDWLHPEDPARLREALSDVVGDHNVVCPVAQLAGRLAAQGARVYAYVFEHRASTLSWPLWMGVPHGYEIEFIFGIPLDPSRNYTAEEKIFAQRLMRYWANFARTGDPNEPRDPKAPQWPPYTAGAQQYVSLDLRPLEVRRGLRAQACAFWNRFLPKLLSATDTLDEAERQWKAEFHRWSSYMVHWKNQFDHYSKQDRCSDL
Protocol: The inhibitory activities against AChE of compounds were investigated in vitro using the modified Ellman method. Briefly, the reaction mixture containing 20 μL of a different concentrations of the test compunds dissolved in DMSO solution, 450 μL of reaction buffer (0.01 M phosphate buffer, pH 7.0), 10 μL of 0.08-0.10 units/mL AChE (Sigma, one unit hydrolyzes […] of acetylcholineto choline and acetate per min at pH 7.0, 37 °C) and 10 μL of 0.01 M DTNB (Sigma, St. Louis, MO, USA) were filled in a microwell of 24-well polystyrene plate and incubated for 30 min at 37 °C. After preincubation, The reaction was started by adding 20 μL of 0.01 M ATCh (Sigma, St. Louis, MO, USA) solution in 0.01 M phosphate buffer (pH 7.0). Colorimetric measurements (412 nm) were performed on a enspire multimode microplate reader (varioskan flash, Thermo, Waltham, MA, USA). For determining the blank value, the 20 μL of test compound solution was instead of 20 μL of DMSO solution. Each concentration was analyzed in triplicate. […] IC50 values were determined graphically from the regression analysis of concentration-inhibition curves. The IC50 values are the mean ± standard deviations of three independent experiments.

[2] = Human alphaherpesvirus 1, plaque reduction assay in Vero cells, under non-cytotoxic concentrations (TC0)

SMILES	Cytotoxicity Against Vero TC0 (Vero cell line) [µg/mL]	IC50 (HSV-1; [2]) [µg/mL]	EC50 [1] [µg/mL]	LC50/EC50 values [1] [µg/mL]	IC50 (AChE) [µM]	other results
Nc1nc2c(ncn2COCCO)c(=O)[nH]1 [Acyclovir, reference compound]	>1000	34.5 ± 0.7 (≈ 153 µM)	–	–	–	–
COc1cc(-c2cc3c(c(=O)o2)C[C@]2(O)[C@@]4(C)C(=O)C=CC(C)(C)[C@]4(O)CC[C@@]2(C)O3)cc(O)c1OC [Compound 1, territrem D]	25	–	12.9 ± 0.5 (≈ 25.2 µM)	> 100	0.0042 ± 0.0006	–
COc1cc(-c2cc3c(c(=O)o2)C[C@]2(O)[C@@]4(C)C(=O)C=CC(C)(C)[C@]4(O)CC[C@@]2(C)O3)ccc1O [Compound 2, territrem E]	200	–	–	–	–	IC50 (AChE; modified Ellman method, pH 7.0, 37 °C, mean ± SD of three independent experiments, read-out: Anti-AChE IC50): 0.0045 ± 0.0006 µM
COc1ccc(-c2cc3c(c(=O)o2)C[C@H]2[C@@](C)(CC[C@@]4(O)C(C)(C)OC(=O)CC[C@]24C)O3)cc1 [Compound 3, 11a-dehydroxyisoterreulactone A]	200	16.4 ± 0.6 (≈ 35 µM)	–	–	–	–
COc1cc(-c2cc3c(c(=O)o2)C[C@]2(O)[C@@]4(C)C(=O)C=CC(C)(C)[C@]4(O)CC[C@@]2(C)O3)cc(OC)c1OC [Compound 4, territrem B]	25	–	–	–	0.0042 ± 0.0006	–
COc1cc(-c2cc3c(c(=O)o2)C[C@]2(O)[C@@]4(C)C(=O)C=CC(C)(C)[C@]4(O)CC[C@@]2(C)O3)cc(OC)c1O [Compound 5, territrem C]	>25	–	–	–	0.0201 ± 0.0033	–
COc1ccc(-c2cc3c(c(=O)o2)C[C@]2(O)[C@@]4(C)C(=O)C=CC(C)(C)[C@]4(O)CC[C@@]2(C)O3)cc1OC [Compound 6, arisugacin A]	100	–	–	–	0.0119 ± 0.0021	IC50 (HSV-1; Human alphaherpesvirus 1, Vero): 6.34 ± 0.4 µg/mL (≈ 12.8 µM)
COc1ccc(-c2cc3c(c(=O)o2)C[C@]2(O)[C@@]4(C)[C@@H](O)C[C@@H](OC(C)=O)C(C)(C)[C@]4(O)CC[C@@]2(C)O3)cc1 [Compound 7, arisugacin H]	100	–	–	–	–	IC50 (AChE; modified Ellman method, value printed in μM in text, read-out: Anti-AChE IC50): 5.7 ± 0.8 µM
COc1ccc(-c2cc3c(c(=O)o2)C[C@]2(O)[C@@]4(C)CCC(=O)C(C)(C)[C@]4(O)CC[C@@]2(C)O3)cc1 [Compound 8, terreulactone C]	>25	–	–	–	0.05 ± 0.0015	–
COC1(Cc2ccc(O)cc2)OC(=O)C(O)=C1c1ccc(O)cc1 (stereo not shown) [Compound 10, isobutyrolactone II]	200	21.8 ± 1.8 (≈ 66.4 µM)	–	–	–	–
COC(=O)[C@]1(Cc2ccc3c(c2)C[C@H](O)C(C)(C)O3)OC(=O)C(O)=C1c1ccc(O)cc1 [Compound 11, butyrolactone V]	–	–	22.1 ± 0.8 (≈ 50.2 µM)	> 100	–	–
COC(=O)[C@]1(Cc2ccc3c(c2)CCC(C)(C)O3)OC(=O)C(O)=C1c1ccc(O)cc1 [Compound 12, aspernolide A]	100	28.9 ± 1.8 (≈ 68.1 µM)	7.4 ± 0.6 (≈ 17.4 µM)	> 100	–	–
COC(=O)[C@]1(Cc2ccc(O)c(CCC(C)(C)O)c2)OC(=O)C(O)=C1c1ccc(O)cc1 [Compound 15, aspernolide B]	–	–	16.1 ± 0.6 (≈ 36.4 µM)	> 100	–	–
